Experiments:
CB1 receptor = target: T1, CB1 receptor (Rattus norvegicus, UniProt P20272); test: CB1 binding procedure, displacement of [3H]CP 55,940 from rat whole-brain P2 membranes; details: Table 6; read-out: CB1 KI
T1 construct: whole brain was homogenized and centrifuged; from tissue; host or cells: whole brain of male Sprague-Dawley rats, P2 membrane fraction
Method: (§1) Male ICR mice (25-32 g), obtained from Harlan (Dublin, Va.), were housed in groups of five. All animals were kept in a temperature-controlled (20-22° C.) environment with a 12-hour light-dark cycle (lights on at 7 a.m.). Separate mice were used for testing each drug dose in the in vivo behavioral procedures. Brain tissue for binding studies was obtained from male Sprague-Dawley rats (150-200 g) purchased from Harlan Laboratories (Dublin, Va.).
The methods used for tissue preparation and binding have been described previously (Compton et al., 1993) and are similar to those described by Devane et al. (1988). All assays, as described briefly below, were performed in triplicate, and the results represent the combined data from three to six individual experiments.
Following decapitation and rapid removal of the brain, whole brain was homogenized and centrifuged. The resulting pellet was termed P1. The supernatant was saved and combined with the two subsequent supernatants obtained from washing of the P1 pellet. The combined supernatant fractions were centrifuged, resulting in the P2 pellet. After further incubation and centrifuging, this pellet was resuspended in assay buffer to a protein concentration of approximately 2 mg/ml. The membrane preparation was quickly frozen in a bath solution of dry ice and 2-methylbutane (Sigma Chemical Co., St. Louis, Mo.), then stored at −80° C. for no more than 2 weeks. Prior to performing a binding assay an aliquot of frozen membrane was rapidly thawed and protein values determined by the method of Bradford (1976).
Binding was initiated by the addition of 150•g of P2 membrane to test tubes containing 1 nM of [^3H] CP 55,940 (79 Ci/mmol) and a sufficient quantity of buffer to bring the total incubation volume to 1 ml. […] Following incubation at 30° C. for 1 hr, binding was terminated by addition of ice cold buffer and vacuum filtration through pretreated filters in a 12-well sampling manifold (Millipore, Bedford, Mass.). After washing, filters were placed into plastic scintillation vials (Packard, Downer Grove, Ill.) and shaken. The quantity of radioactivity present was determined by liquid scintillation spectrometry.
(§2) In addition, multiple linear regression was used to calculate the overall degree of relationship between CB1 binding affinity and potency in the mouse measures for all active cannabinoids. […] Ki values for CB1 and CB2 binding were obtained from Scatchard displacement analysis as determined via EBDA program of the KELL software package (Biosoft, Milltown, N.J.).

male ICR mice [1] = test: Change in rectal temperature (RT) in mice, i.v.; type: in vivo, mouse; details: for R.T. effect at dose: @ 30 mg/kg
Method: as §1
(§3) Measurement of spontaneous activity in mice occurred in standard activity chambers interfaced with a Digiscan Animal Activity Monitor (Omnitech Electronics, Inc., Columbus, Ohio). A standard tail-flick apparatus and a digital thermometer (Fisher Scientific, Pittsburgh, Pa.) were used to measure antinociception and rectal temperature, respectively.
(§4) Resorcinols were synthesized in our labs (Organix, Inc., Woburn, Mass.) according to the procedure specified below and were suspended in a vehicle of absolute ethanol, Emulphor-620 (Rhone-Poulenc, Inc., Princeton, N.J.), and saline in a ratio of 1:1:18. Drugs were administered to the mice intravenously (i.v.) in the tail vein at a volume of 0.1 ml/10 g.
(§5) Prior to testing in the behavioral procedures, mice were acclimated to the experimental setting (ambient temperature 22-24° C.) overnight. Pre-injection control values were determined for rectal temperature and tail-flick latency (in sec). Five min after i.v. injection with drug or vehicle, mice were placed in individual activity chambers and spontaneous activity was measured for 10 min. […] Tail-flick latency was measured at 20 min post-injection. Maximum latency of 10 sec was used. Antinociception was calculated as percent of maximum possible effect {% MPE=[(test−control latency)/(10-control)]×100}. Control latencies typically ranged from 1.5 to 4.0 sec. At 30 min post-injection, rectal temperature was measured. This value was expressed as the difference between control temperature (before injection) and temperatures following drug administration (° C.). Different mice (n=5-6 per dose) were tested for each dose of each compound. Each mouse was tested in each of the 3 procedures.
(§6) Based on data obtained from numerous previous studies with cannabinoids, maximal cannabinoid effects in each procedure were estimated as follows: 90% inhibition of spontaneous activity, 100% MPE in the tail flick procedure, and −6° C. change in rectal temperature. ED50's were defined as the dose at which half maximal effect occurred. For drugs that produced one or more cannabinoid effect, ED50's were calculated separately using least-squares linear regression on the linear part of the dose-effect curve for each measure in the mouse tetrad, plotted against log10 transformation of the dose. For the purposes of potency comparison, potencies were expressed as μmol/kg.

male ICR mice [2] = test: Tail-flick antinociception (TF, % MPE) in mice, i.v.; type: in vivo, mouse; details: @ 30 mg/kg; for inhibition in vivo at 30 mg/kg: Mus musculus, iv, Table 6, read-out: T.F. % effect at dose
Method: as §1, §3, §4, §5, §6

CB2 receptor = target: T2, CB2 receptor (Homo sapiens, UniProt P34972); test: CB2 binding procedure, displacement of [3H]CP-55,940 from membranes of transfected CHO cells; details: for Ki: Table 6, read-out: CB2 KI; for CB1/CB2: ratio of CB1 Ki to CB2 Ki
T2 construct: expressed in transfected cells
T2 sequence (P34972 whole entry): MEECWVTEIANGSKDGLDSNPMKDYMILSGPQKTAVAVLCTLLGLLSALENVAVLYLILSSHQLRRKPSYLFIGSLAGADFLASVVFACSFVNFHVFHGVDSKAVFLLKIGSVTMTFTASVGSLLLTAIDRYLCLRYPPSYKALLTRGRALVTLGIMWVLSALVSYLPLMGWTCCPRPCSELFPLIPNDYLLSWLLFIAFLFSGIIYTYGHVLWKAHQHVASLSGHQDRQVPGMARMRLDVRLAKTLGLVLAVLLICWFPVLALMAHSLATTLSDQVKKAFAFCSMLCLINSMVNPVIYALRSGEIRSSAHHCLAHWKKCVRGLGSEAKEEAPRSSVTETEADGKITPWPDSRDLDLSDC
Method: Membranes for CB2 binding were obtained from CHO cells. The transfected cell line was maintained in Dublecco's Modified Eagle Medium (Gibco BRL, Grand Island, N.Y.) with 10% fetal clone II (HyClone Laboratories, Inc., Logan, Utah) plus 0.3 to 0.5 mg/ml G418 (to maintain selective pressure) under 5% CO2 at 37% C. Cells were harvested with 1 mM EDTA in phosphate-buffered saline and were centrifuged at 1000×g for 5 min at 4% C. The supernatant was saved and the P1 pellet was resuspended in centrifugation buffer. Homogenization and centrifugation were repeated twice and the combined supernatant fractions were centrifuged at 40,000×g for 30 min at 4% C. The P2 pellet was resuspended in centrifugation buffer 2 (Tris HCl, 50 mM; EDTA, 1 mM; and MgCl2, 3 mM, pH 7.4) to a protein concentration of approximately 2 mg/ml. Protein concentrations were determined by the method of Bradford (1976) using Bio-Rad Protein Assay (Bio-Rad, Richmond, Calif.) and BSA standards (fatty acid free, Sigma Chemical Co., St. Louis, Mo.). The membrane preparation was divided into amounts convenient for binding assays and frozen rapidly in dry ice and stored at −80% C.
Binding was initiated by the addition of 50•g of quickly thawed P2 membranes to test tubes containing [^3H]CP-55,940 (final reaction concentration 0.5 nM), an appropriate concentration of unlabeled CP-55,940 or test drug, and sufficient quantity of assay buffer (50 mM Tris-HCl, 1 mM EDTA, 3 mM MgCl2, 5 mg/ml bovine serum albumin, pH 7.4) to bring the total incubation volume to 0.5 ml. Concentration of [^3H]CP-55,940 in saturation studies ranged from 50 to 10,000 pM. […] CP-55,940 and all cannabinoid analogs were-prepared by suspension in assay buffer from a 1 mg/ml ethanolic stock without evaporation of the ethanol (final concentration of no more than 0.4%). In competition studies, analog concentrations ranged from 0.1 nM to 10•M. After incubation at […] for 1 hr, binding was terminated by the addition of 2 ml of ice-cold wash buffer (50 mM Tris-HCl and 1 mg/ml BSA) and vacuum filtration through pre-treated filters in a 12-well sampling manifold (Millipore, Bedford, Mass.). Reaction vessels were washed once with 2 ml of ice-cold wash buffer. Filters were placed into 7-ml plastic scintillation vials (RPI Corp., Mount Prospect, Ill.) with 4 ml of Budget-Solve (RPI Corp.). After shaking for 30 min, the radioactivity present was determined by liquid scintillation spectrometry. Three reaction vessels were used for each drug concentration in each assay. The results represent the combined data of three independent experiments. All assays were performed in siliconized test tubes, which were prepared by air drying (12 hr) inverted borosilicate tubes after two rinses with a 0.1% solution of AquaSil (Pierce, Rockford, Ill.). The GF/C glass-fiber filters (2.4 cm, Baxter, McGaw Park, Ill.) were pre-treated in a 0.1% solution of pH 7.4 polyethylenimine (Sigma Chemical Co.) for at least 6 hr.
as §2

male ICR mice [3] = test: Suppression of spontaneous activity (SA) in mice, i.v.; type: in vivo, mouse; details: @ 30 mg/kg, Table 6
Method: as §1, §3, §4, §5, §6

T1 sequence (P20272 whole entry): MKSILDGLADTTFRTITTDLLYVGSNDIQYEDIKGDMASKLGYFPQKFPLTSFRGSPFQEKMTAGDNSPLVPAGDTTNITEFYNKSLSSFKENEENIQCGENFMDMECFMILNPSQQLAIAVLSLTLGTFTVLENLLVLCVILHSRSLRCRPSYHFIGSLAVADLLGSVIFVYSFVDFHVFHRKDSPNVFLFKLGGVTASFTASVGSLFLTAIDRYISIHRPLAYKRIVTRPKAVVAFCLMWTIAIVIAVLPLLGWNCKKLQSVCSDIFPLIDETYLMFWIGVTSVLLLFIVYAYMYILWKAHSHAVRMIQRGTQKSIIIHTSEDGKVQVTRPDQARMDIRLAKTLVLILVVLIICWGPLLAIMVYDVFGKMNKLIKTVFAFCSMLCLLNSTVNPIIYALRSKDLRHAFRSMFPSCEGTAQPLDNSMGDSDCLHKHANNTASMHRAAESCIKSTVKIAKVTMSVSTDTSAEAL

SMILES | Ki (CB1 receptor) [µM] | inhibition in vivo at 30 mg/kg (male ICR mice [2]) [%] | Ki (CB2 receptor) [µM] | R.T. effect at dose (male ICR mice [1]; Table 6, 30 mg/kg) | CB1/CB2 (CB2 receptor) | also measured
C=C(C)[C@@H]1CCC(C)=CC1c1c(C)cc(O)cc1O (single isomer, unassigned; (-)) [O-1602] | > 10 | 0 | > 10 |  |  | R.T. effect at dose (male ICR mice [1]; Table 6): 0.3 @ 30 °C
C=C(C)[C@@H]1CCC(C)=CC1c1c(O)cc(C)cc1O (single isomer, unassigned; (-)) [O-1821, (-)-2-(3-3,4-trans-p-menthadien-(1,8)-yl)-orcinol] | > 10 | 3 |  |  |  | S.A. % effect at dose (male ICR mice [3]): 0 @ 30%
CCCCCCC(C)(C)c1cc(OC)c(C2(O)CCCC(C)C2)c(OC)c1 (single isomer, unassigned; isomer 1) [O-1966A, 1-[4-(1,1-Dimethyl-heptyl)-2,6-dimethoxy-phenyl]-3-methyl-cyclohexanol isomer 1] |  |  |  | 0.5 @ 30 °C | 220 | 
CCCCCCC(C)(C)c1cc(OC)c(C2(O)CCCC(C)C2)c(OC)c1 (single isomer, unassigned; isomer 2) [O-1967B, 1-[4-(1,1-Dimethyl-heptyl)-2,6-dimethoxy-phenyl]-3-methyl-cyclohexanol isomer 2] |  |  |  | 0 @ 30 °C | 15 | T.F. % effect at dose (male ICR mice [2]; Table 6, 30 mg/kg): 8.2% @30
CCCCCCC(C)(C)c1ccc(-c2cc(C)ccc2C(C)C)c(O)c1 [O-1376, 3-1′,1′-Dimethylhepty-6-(2-isopropyl-5-methylphenyl)phenol] |  |  | 0.00263 ± 0.00036 |  | 11 | ED50 (male ICR mice [1]; Mus musculus, iv, 95% confidence limits in parentheses, read-out: ED50 RT (rectal temperature)): 23 µmol/kg
